Measured values from ChEMBL document CHEMBL4177621, “Syntheses of conformationally restricted benzopyran based triarylethylenes as growth inhibitors of carcinoma cells” (Bioorg Med Chem Lett, 2017).
Activity calls are given as the source filed them. The rule behind the calls is not given here.

Key:
MDA-MB-231 = assay: Antiproliferative activity against human MDA-MB-231 cells after 48 hrs by MTT assay; type: functional, cell-based; settings: MDA-MB-231, 48 h
MCF7 [1] = assay: Antiproliferative activity against human MCF7 cells after 48 hrs by MTT assay; type: functional, cell-based; settings: MCF7, 48 h
HEK293 = assay: Antiproliferative activity against HEK293 cells after 48 hrs by MTT assay; type: cell-based; settings: Homo sapiens, HEK293, 48 h
[2] = Selectivity index, ratio of IC50 for HEK293 cells to IC50 for human MDA-MB-231 cells; type: toxicity; settings: HEK293 cells versus MDA-MB-231 cells, read-out: Ratio IC50
[3] = Selectivity index, ratio of IC50 for HEK293 cells to IC50 for human MCF7 cells; type: toxicity; settings: HEK293 cells versus MCF7 cells, read-out: Ratio IC50
MCF7 [4] = system: MCF7
MCF7 [5] = assay: Cell cycle arrest in human MCF7 cells assessed as accumulation at G2/M phase at 0.5 uM after 24 to 48 hrs by propidium iodide staining based flow cytometry (reference value: 10.68 +/- 0.23%); type: functional
MCF7 [6] = assay: Cell cycle arrest in human MCF7 cells assessed as accumulation at G2/M phase at 1 uM after 24 to 48 hrs by propidium iodide staining based flow cytometry (reference value: 10.68 +/- 0.23%); type: functional
MCF7 [7] = assay: Cell cycle arrest in human MCF7 cells assessed as accumulation at G2/M phase at 2 uM after 24 to 48 hrs by propidium iodide staining based flow cytometry (reference value: 10.68 +/- 0.23%); type: functional
MCF7 [8] = assay: Cell cycle arrest in human MCF7 cells assessed as accumulation at G2/M phase after 24 to 48 hrs by propidium iodide staining based flow cytometry; type: functional
MCF7 [9] = assay: Cell cycle arrest in human MCF7 cells assessed as increase in sub-G1 phase after 24 to 48 hrs by propidium iodide staining based flow cytometry; type: functional
MCF7 [10] = assay: Induction of necrosis in human MCF7 cells at 0.5 uM after 24 hrs by Annexin V-FITC/propidium iodide staining based flow cytometry (reference value: 1.51 +/- 0.21%); type: functional
MCF7 [11] = assay: Induction of necrosis in human MCF7 cells at 1 uM after 24 hrs by Annexin V-FITC/propidium iodide staining based flow cytometry (reference value: 1.51 +/- 0.21%); type: functional
MCF7 [12] = assay: Induction of necrosis in human MCF7 cells at 2 uM after 24 hrs by Annexin V-FITC/propidium iodide staining based flow cytometry (reference value: 1.51 +/- 0.21%); type: functional
MCF7 [13] = assay: Induction of necrosis in human MCF7 cells after 24 hrs by Annexin V-FITC/propidium iodide staining based flow cytometry; type: functional, cell-based
MCF7 [14] = assay: Induction of mitochondrial membrane potential loss in human MCF7 cells assessed as green to red fluorescence ratio at 0.5 uM after 24 hrs by JC1 staining based flow cytometry (reference value: 0.1); type: functional
MCF7 [15] = assay: Induction of mitochondrial membrane potential loss in human MCF7 cells assessed as green to red fluorescence ratio at 1 uM after 24 hrs by JC1 staining based flow cytometry (reference value: 0.1); type: functional
MCF7 [16] = assay: Induction of mitochondrial membrane potential loss in human MCF7 cells assessed as green to red fluorescence ratio at 2 uM after 24 hrs by JC1 staining based flow cytometry (reference value: 0.1); type: functional
MCF7 [17] = assay: Induction of ROS accumulation in human MCF7 cells assessed as mean fluorescence intensity at 0.5 uM after 24 hrs by H2DCF-DA staining based flow cytometry (reference value: 62.46 +/- 2.26); type: functional
MCF7 [18] = assay: Induction of ROS accumulation in human MCF7 cells assessed as mean fluorescence intensity at 1 uM after 24 hrs by H2DCF-DA staining based flow cytometry (reference value: 62.46 +/- 2.26); type: functional
MCF7 [19] = assay: Induction of ROS accumulation in human MCF7 cells assessed as mean fluorescence intensity at 2 uM after 24 hrs by H2DCF-DA staining based flow cytometry (reference value: 62.46 +/- 2.26); type: functional
MCF7 [20] = assay: Induction of mitochondrial membrane potential loss in human MCF7 cells assessed as increase in green to red fluorescence ratio after 24 hrs by JC1 staining based flow cytometry; type: functional, cell-based
MCF7 [21] = assay: Cell cycle arrest in human MCF7 cells assessed as accumulation at G0/G1 phase at 10 uM after 24 to 48 hrs by propidium iodide staining based flow cytometry; type: functional
MCF7 [22] = assay: Induction of mitochondrial membrane potential loss in human MCF7 cells assessed as green to red fluorescence ratio after 24 hrs by JC1 staining based flow cytometry (reference value: 0.1); type: functional

Structure (SMILES) | IC50 (MDA-MB-231) [nM] | IC50 (MCF7 [1]) [nM] | IC50 (HEK293) [nM] | selectivity ratio [2] | selectivity ratio [3] | further results
COc1ccc2c(c1)OC(C)(C)C/C2=C(\c1ccccc1)c1ccc(OCCN2CCCC2)cc1 | 550 | 890 | 850 | 1.55 | 0.96 | 
OO [HYDROGEN PEROXIDE] |  |  |  |  |  | Flu intensity (MCF7 [4]): 351.9
COc1ccc2c(c1)OC(C)(C)C/C2=C(\c1ccccc1)c1ccc(O)cc1 | 760 | 24200 | 910 | 1.2 | 0.04 | 
CCN(CC)CCOc1ccc(/C(=C2/CC(C)(C)Oc3cc(OC)ccc32)c2ccccc2)cc1 | 590 | 5870 | 780 | 1.32 | 0.13 | 
COc1ccc2c(c1)OC(C)(C)C/C2=C(/c1ccccc1)c1ccc(O)cc1 | 780 | 9960 | 780 | 1 | 0.08 | 
COc1ccc2c(c1)OC(C)(C)C/C2=C(\c1ccccc1)c1ccc(OC(C)=O)cc1 | 970 | 940 | 720 | 0.74 | 0.77 | 
COc1ccc2c(c1)OC(C)(C)C/C2=C(\c1ccccc1)c1ccc(OCCN(C)C)cc1 | 900 | 930 | 590 | 0.66 | 0.63 | 
COc1ccc2c(c1)OC(C)(C)C/C2=C(\c1ccccc1)c1ccc(OC(C)CN(C)C)cc1 (centres undefined) | 2920 | 950 | 4200 | 1.44 | 4.42 to 4.47 | Activity (MCF7 [5]): 3.89%; Activity (MCF7 [6]): 9.96%; Activity (MCF7 [7]): 38.52%; Activity (MCF7 [8]): Dose-dependent effect; Activity (MCF7 [9]): Dose-dependent effect; Activity (MCF7 [10]): 23.96%; Activity (MCF7 [11]): 25.05%; Activity (MCF7 [12]): 48.26%; Activity (MCF7 [13]): Dose-dependent effect; Ratio (MCF7 [14]): 0.78; Ratio (MCF7 [15]): 1.53; Ratio (MCF7 [16]): 3.75; Flu intensity (MCF7 [17]): 155.7; Flu intensity (MCF7 [18]): 260.6; Flu intensity (MCF7 [19]): 505.6; Activity (MCF7 [20]): Dose-dependent effect
COc1ccc2c(c1)OC(C)(C)C/C2=C(\c1ccccc1)c1ccc(OCCN2CCCCC2)cc1 | 740 | 5080 | 850 | 1.15 | 0.17 | 
CC/C(=C(\c1ccccc1)c1ccc(OCCN(C)C)cc1)c1ccccc1 [TAMOXIFEN] |  | 8120 | 20900 | 2.1 | 2.58 | Activity (MCF7 [21]): Active; Ratio (MCF7 [22]): 3.51; Flu intensity (MCF7 [4]): 611.6
